Assay results from patent publication US10543194B2, “Organic compounds” (INTRA-CELLULAR THERAPIES, INC., priority 2014, dated 2020).

Assays:
[1] = Pharmacokinetic study in mice (plasma and brain availability); type: in vivo; conditions: 10 mg/kg PO, compared to Bay 60-7550
Description: Mice are given a single oral dose of the compound of Example 22 (10 mg/kg, PO) and plasma and brain availability are measured (0.25-4 h) using HPLC and LC-MS using methods analogous to those described in Zhao et al., J. Chromatogr. B. Analyt. Technol. Biomed. Life Sci. (2005) 819(1):73-80 and Appels, N. M., et al., Rapid Commun. Mass Spec. 2005. 19(15): p. 2187-92.

[2] = test system: cGMP levels in the striatum; test: Measurements of cGMP in mouse brain in vivo; conditions: mice, 3 mg/kg i.p., 15, 30 or 60 min, compared to Bay 60-7550 (3 mg/kg)
Description: Striatum are dissected from the mouse brains and assayed for levels of cGMP. Trichloroacetic acid (TCA) is added to tissue samples for a final concentration of 5% TCA and the tissue is immediately sonicated in solution and stored on ice. The sonicated sample is centrifuged at 15,000×g for 20 min at 4° C. to remove the precipitated protein. To extract the TCA, the sample is washed three times in water saturated ether. The samples are then dried under vacuum (Speedvac, Savant SPD111V) at room temperature and re-suspended in 100 μL EIA buffer. […] Each sample is tested in duplicate in precoated assay plates alongside the 8-point cGMP standard dilutions. In addition, blank, maximum binding (B0) and non-specific binding wells are included. To all wells containing 50 μL sample or standard, equal volumes of AChE-linked cGMP and cGMP antibody are added. The plate is incubated at 4° C. for 18 hours. The wells are then washed 5 times with wash buffer. Detection reagent containing acetylthiocholine and […] is added and the plate is incubated at room temperature until the OD of the B0 wells is at least 0.5 as recorded by the SoftMax 4.8 software (Molecular Devices, Sunnyvale, Calif.). Each data point is converted to % B/B0 (100*[sample or standard OD−average non-specific binding)/(average B0−average non-specific binding)]). […]

COc1ccc2[nH]c(=O)c3c(C)nn(-c4cc(OCC5CCC5)ccc4Cl)c3c2n1 [Example 22, 1-(2-Chloro-5-(cyclobutylmethoxy)phenyl)-8-methoxy-3-methyl-1H-pyrazolo[4,3-c][1,5]naphthyridin-4(5H)-one]
brain access [1]: good brain access
cGMP levels in the striatum [2]: increases cGMP levels in the striatum
